# Source: PMC6470784, “Effect of Stereochemical Configuration on the Transport and Metabolism of Catechins from Green Tea across Caco-2 Monolayers” (Molecules, 2019)
# Structures can show the parent of a compound that is named as a salt. Where two headings read alike, the source gives them in different places.
# Tests used:
# MRP2 [1] = test: MRP2 mRNA level in Caco-2 cells (qRT-PCR); type: cell-based, human; conditions: 300 μmol/L, 2 h
# Procedure: The Caco-2 cells were seeded in six-well plates (Corning Costar Co., NY, USA) at a density of 4 × 10^4 cells/cm^2, and were cultured for 21 days. After incubation with each tea catechins (300 μmol/L in full culture medium) for 2 h or 24 h, the total RNA from the Caco-2 cells were isolated with a Total RNA Kit (Aidlab, Beijing, China). First-strand cDNA was synthesized using a cDNA synthesis Kit (Aidlab, Beijing, China). The gene expression of MRP2 was examined by quantitative real-time PCR with the SYBR Green qPCR Mix (Aidlab, Beijing, China) in an ABI7500 Real-Time System (Applied Biosystems, USA). The reaction was carried out in a 10 μL RT-reaction mixture containing 5 μL 2 × SYBR Green qPCR Mix, 0.2 μL forward and reverse primers (10 μmol/μL), and water to a final volume of 10 μL, and was performed under the following cycling conditions: an initial denaturing step of 10 min at 95 °C, followed by 40 cycles consisting of 5 s at 95 °C and 34 s at 60 °C.
# All of the qPCR experiments were repeated in three biologicals. The data were analyzed using the 2-ΔΔCT method. All of the primers were synthesized by Sangon Biotech (Shanghai, China), as previously described, and their sequences are depicted in Table 3.
# MRP2 [2] = test: MRP2 protein level in Caco-2 cells (Western blot); type: cell-based, human; conditions: 300 μmol/L, 2 h
# Procedure: After being washed by precooled PBS buffer three times, the total lysate was prepared on ice from 5 to 8 × 10^6 cells by lysis in a 150 μL Radio Immunoprecipitation Assay (RIPA) Lysis buffer containing 1% (v/v) Phenylmethanesulfonyl fluoride (PMSF) (Beyotime, Shanghai, China). The lysates were centrifuged at 13,000 rpm for 20 min at 4 °C, after mixing uniformity. The protein-containing supernatant was collected and the protein content was determined using the Bio-Rad protein assay. Western blotting was performed according to standard techniques, as previously described. In each lane of a Bio-Rad minigel system, 10 μg of protein was loaded. For the detection of BCRP, P-glycoprotein (MDR1), and MRP2, the following polyclonal antibodies were used: rabbit anti-BCRP (1:1000), rabbit anti-P-glycoprotein (1:1000), and rabbit anti-MRP2 (1:600). Horseradish peroxidase (HRP)-conjugated goat anti-rabbit (1:3000) were used as the secondary antibodies. As a loading control, the expression of β-actin was determined using an antibody against β-actin (1:40,000). Enhanced chemiluminescence (ECL) solutions were used for chemiluminescence.
# [3] = Bidirectional transepithelial transport across Caco-2 monolayers (Papp, efflux ratio), with and without MK571; conditions: human; for Papp A→B at 300 μmol/L / Papp at 300 μmol/L / Papp B→A at 300 μmol/L: Caco-2, pH 6
# Procedure: (§1) For the transport experiments, the cells were seeded in 24-mm i.d Transwell® inserts (polycarbonate membrane, 0.4 μM pore size, Corning Costar Co., (Corning, NY, USA) in six-well plates at a density of 4 × 10^5 cells/well, and were cultured for 21 days prior to the transport experiments. To monitor the integrity of the cell layers, transepithelial electrical resistance (TEER) values were measured using a Millicell-ERS Voltohmmeter (Millipore Corp, Bedford, MA, USA). TEER values above 513.7 Ω·cm^2 in the culture medium were selected for the transport experiment.
# (§2) For the transport of GTCs across the Caco-2 monolayers, the inserts were gently washed twice and were equilibrated at 37 °C for 30 min with 0.01 M modified phosphate buffer saline (PBS+), which was supplemented with 0.45 M calcium chloride and 0.4 M potassium chloride, and adjusted to pH 6.0 [7]. In the transepithelial transport, GTCs at different concentrations in PBS+ (DMSO less than 0.5%) were loaded into the apical (AP) or basolateral (BL) side, the so-called donor side. The plate was then incubated at 37 °C. At designated time intervals, aliquots of 0.5 mL of sample were taken from the other side, the so-called receiver side, and then replaced with an equal volume of PBS+. After that, the samples were dried with a CoolSafe freeze dryer (LaboGene ApS, Bjarkesvej, Denmark) at −110 °C, and stored at −20 °C until analysis.
# (§3) For the inhibition of transport, MK571 was used at a concentration of 93.11 μmol/L (50 μg/mL with a DMSO less than 0.3%). The cells were preincubated with the inhibitor for 30 min. Then, the bi-directional transport studies of the GTCs in the presence of MK-571 at both the donor and receiver side were performed as for the transport method described above.
# (§4) The transport samples were analyzed by an Agilent LC 1260 system (Agilent Technologies, CA, USA) after redissolving with 50 μL methyl into vial inserts (100 uL; Agilent Technologies, CA, USA). The separation was performed on an Octadecylsilyl (ODS) reversed-phase column (4.6 mm i.d. × 250 mm, 4.5 μm; TC-C18, Agilent Technologies) using a diode array detector (DAD) at 278 nm. The mobile phase consisted of 15% methanol and 0.1% formic acid at a flow-rate of 0.8 mL/min.
# (§5) The values were expressed as the mean ± standard deviation (SD) of three replications. The statistical significances of the difference between the various groups were analyzed using the Fisher’s least significant difference (LSD) procedure. For comparison between the two groups, the Student’s t-test was used. The differences were considered to be significant when p < 0.05.
# BCRP [4] = test: BCRP mRNA level in Caco-2 cells (qRT-PCR); type: cell-based, human; conditions: 2 h
# Procedure: All of the qPCR experiments were repeated in three biologicals. The data were analyzed using the 2-ΔΔCT method [39]. All of the primers were synthesized by Sangon Biotech (Shanghai, China), as previously described [40], and their sequences are depicted in Table 3.
# in vitro = conditions: human; for Papp A→B at 300 μmol/L / Papp B→A at 300 μmol/L / Papp at 300 μmol/L: Caco-2, pH 6; for efflux ratio: Caco-2, pH 6, Efflux ratio in the absence of MK571
# Procedure: as §1, §2, §3, §4, §5
# [5] = parameters: method as in PMID 10909265; conditions: rats, cited from earlier work
# [6] = cited from earlier work
# P-glycoprotein = test system: P-glycoprotein; parameters: method as in PMID 15285844; conditions: KB-C2 cells; cited from earlier work
# MRP2 [7] = test system: MRP2; parameters: method as in PMID 23146761; conditions: rats, 24 h; cited from earlier work
# BCRP [8] = test system: BCRP; parameters: method as in PMID 20149610; conditions: MCF-7 cell line, 100 μg/mL; cited from earlier work
# Caco-2 cell monolayers = test: Bidirectional transepithelial transport across Caco-2 monolayers (Papp, efflux ratio), with and without MK571; conditions: Caco-2 monolayers, MK571 93.11 μmol/L
# Procedure: as §1, §2, §3, §4, §5
# [9] = Caco-2, pH 6, Efflux ratio in the absence of MK571, Caco-2 monolayers, no MK571
# [10] = Caco-2, pH 6, with MK571 93.11 μmol/L (50 μg/mL), Efflux ratio in the presence of MK571, Caco-2 monolayers, MK571 93.11 μmol/L
# [11] = rats, intragastric administration
SMILES,Increase of mRNA levels of MRP2 (MRP2 [1]),Increase of protein level of MRP2 (MRP2 [2]),Papp A→B at 300 μmol/L [3],"efflux ratio [3, 9]","efflux ratio [3, 10]",BCRP gene expression (BCRP [4]),Papp A→B at 300 μmol/L (in vitro),Papp B→A at 300 μmol/L (in vitro),efflux ratio (in vitro),Papp B→A at 300 μmol/L [3],Cellular accumulation of rhodamine-123 and daunorubicin (P-glycoprotein),also measured
"Oc1cc(O)c2c(c1)O[C@H](c1ccc(O)c(O)c1)[C@@H](O)C2 [C, (+)-catechin]",14.05%,58.33%,0.156 ± 0.011 ×10⁻⁶ cm/s,16.7,1.34,–,–,–,–,–,–,Papp at 300 μmol/L [3]: < 1 ×10⁻⁶ cm/s
"O=C(O[C@@H]1Cc2c(O)cc(O)cc2O[C@H]1c1ccc(O)c(O)c1)c1cc(O)c(O)c(O)c1 [CG, (−)-catechin gallate]",123.09%,132.00%,–,–,–,upregulation,0.139 ± 0.012 ×10⁻⁶ cm/s,0.651 ± 0.042 ×10⁻⁶ cm/s,4.68,–,–,Papp at 300 μmol/L (in vitro): < 1 ×10⁻⁶ cm/s
"Oc1cc(O)c2c(c1)O[C@H](c1ccc(O)c(O)c1)[C@H](O)C2 [EC, (−)-epicatechin]",41.67%,60.00%,0.152 ± 0.017 ×10⁻⁶ cm/s,11.2,1.06,upregulation,–,–,–,1.69 ± 0.163 ×10⁻⁶ cm/s,–,"Plasma concentration following oral administration ([5]; 250 mg/kg): 53 µM; Bioavailability [6, 11]: 31%"
"O=C(O[C@@H]1Cc2c(O)cc(O)cc2O[C@@H]1c1ccc(O)c(O)c1)c1cc(O)c(O)c(O)c1 [ECG, (−)-epicatechin gallate]",85.18%,24.67%,–,–,–,upregulation,0.138 ± 0.009 ×10⁻⁶ cm/s,0.387 ± 0.031 ×10⁻⁶ cm/s,2.82,–,increase the cellular accumulation,Plasma concentration following oral administration ([5]; 650 mg/kg): 33.5 µM
"Oc1cc(O)c2c(c1)O[C@H](c1cc(O)c(O)c(O)c1)[C@H](O)C2 [EGC, (−)-epigallocatechin]",103.58%,35.67%,–,–,–,–,0.246 ± 0.01 ×10⁻⁶ cm/s,0.674 ± 0.062 ×10⁻⁶ cm/s,2.74,–,increase the cellular accumulation,"Bioavailability ([6]; rat, in vivo, po): 13.7%"
"O=C(O[C@@H]1Cc2c(O)cc(O)cc2O[C@@H]1c1cc(O)c(O)c(O)c1)c1cc(O)c(O)c(O)c1 [EGCG, (−)-epigallocatechin gallate]",89.57%,42.67%,0.093 ± 0.008 ×10⁻⁶ cm/s,2.75,1.05,upregulation,–,–,–,0.257 ± 0.01 ×10⁻⁶ cm/s,increase the cellular accumulation,"Plasma concentration following oral administration ([5]; 2500 mg/kg): 244.3 µM; Protein level of MRP2 on the hepatocyte canalicular membrane (MRP2 [7]): significantly decreased; mRNA transcription and protein level of BCRP (BCRP [8]): not changed; Bioavailability [6, 11]: 0.1%"
"Oc1cc(O)c2c(c1)O[C@@H](c1cc(O)c(O)c(O)c1)[C@H](O)C2 [GC, (+)-gallocatechin]",119.33%,37.67%,–,–,–,–,0.264 ± 0.021 ×10⁻⁶ cm/s,0.875 ± 0.028 ×10⁻⁶ cm/s,3.32,–,–,Papp at 300 μmol/L (in vitro): < 1 ×10⁻⁶ cm/s
"O=C(O[C@@H]1Cc2c(O)cc(O)cc2O[C@H]1c1cc(O)c(O)c(O)c1)c1cc(O)c(O)c(O)c1 [GCG, (−)-gallocatechin gallate]",133.15%,20.67%,0.103 ± 0.021 ×10⁻⁶ cm/s,2.84,1.24,upregulation,–,–,–,0.293 ± 0.013 ×10⁻⁶ cm/s,–,Papp at 300 μmol/L [3]: < 1 ×10⁻⁶ cm/s
"CN(C)C(=O)CCSC(SCCC(=O)O)c1cccc(/C=C/c2ccc3ccc(Cl)cc3n2)c1 (stereo not shown) [MK-571, MK-571 sodium salt hydrate, reference compound]",–,–,–,–,–,–,–,–,–,–,–,Effect of MK-571 on the efflux of eight catechins (Caco-2 cell monolayers): significantly inhibit
